Experimental data reported in BindingDB's records for doi:10.1124/jpet.301.1.37 (National Institutes of Health, 2002).
“And” between values parts separate entries of the source, which are not always exact repeats. Equal values may be shown once.

How the values were obtained:
VIP peptides [1] = biological target: T1, VIP peptides (Rattus norvegicus, UniProt P01283)
T1 sequence (P01283 whole entry): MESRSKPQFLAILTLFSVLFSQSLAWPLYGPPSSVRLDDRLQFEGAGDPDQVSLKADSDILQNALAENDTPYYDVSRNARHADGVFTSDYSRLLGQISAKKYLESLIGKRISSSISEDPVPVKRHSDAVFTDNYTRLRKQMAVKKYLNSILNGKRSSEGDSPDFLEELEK

VIP peptides [2] = biological target: T2, VIP peptides (Cavia porcellus, UniProt P04566)
T2 sequence (P04566 whole entry): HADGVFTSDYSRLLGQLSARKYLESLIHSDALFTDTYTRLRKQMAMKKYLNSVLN

VIP peptides [3] = biological target: T3, VIP peptides (Homo sapiens, UniProt P01282)
T3 sequence (P01282 whole entry): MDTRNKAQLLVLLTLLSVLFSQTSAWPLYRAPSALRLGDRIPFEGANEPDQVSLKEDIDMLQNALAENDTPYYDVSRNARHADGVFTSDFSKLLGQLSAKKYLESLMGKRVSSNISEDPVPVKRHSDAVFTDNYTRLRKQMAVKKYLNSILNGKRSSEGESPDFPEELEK

| Compound | Ki (VIP peptides [1]) | Ki (VIP peptides [2]) [nM] | Ki (VIP peptides [3]) |
| --- | --- | --- | --- |
| CC[C@H](C)[C@H](NC(=O)[C@H](CO)NC(=O)[C@H](CC(N)=O)NC(=O)[C@H](CC(C)C)NC(=O)[C@@H](Cc1ccc(O)cc1)NC(=O)[C@H](CCCCN)NC(=O)[C@H](CCCCN)NC(=O)[C@@H](NC(=O)[C@H](C)NC(=O)[C@H](CCSC)NC(=O)[C@H](CCC(N)=O)NC(=O)[C@H](CCCCN)NC(=O)[C@H](CCCN=C(N)N)NC(=O)[C@H](CC(C)C)NC(=O)[C@H](CCCN=C(N)N)NC(=O)[C@@H](NC(=O)[C@H](Cc1ccc(O)cc1)NC(=O)[C@H](CC(N)=O)NC(=O)[C@H](CC(=O)O)NC(=O)[C@@H](NC(=O)[C@H](Cc1ccccc1)NC(=O)[C@@H](NC(=O)[C@H](C)NC(=O)[C@H](CC(=O)O)NC(=O)[C@H](CO)NC(=O)[C@@H](N)Cc1cnc[nH]1)C(C)C)[C@@H](C)O)[C@@H](C)O)C(C)C)C(=O)N[C@@H](CC(C)C)C(=O)N[C@@H](CC(N)=O)C(N)=O [VIP [D-Tyr22]] | 11.8 nM and 28.2 nM and 38.9 nM | 29.5 | 128 nM and 95.5 nM and 112 nM |
| H-HSDAVFTDNYTRLRKQMAVKKALNSILN-NH2 [VIP Ala22] | 1.1 nM and 3.2 nM and 2.8 nM | 8.5 | 3.8 nM and 7.6 nM and 7.1 nM |
| H-HSDAVATDNYTRLRKQMAVKKYLNSILN-NH2 [VIP Ala16] | 661 nM and 1860 nM and 2340 nM | 2750 | 724 nM and 1150 nM and 794 nM |
| H-HSDAVFTDNYTRLRKQMAVKAYLNSILN-NH2 [VIP Ala21] | 0.38 nM and 2.1 nM and 0.51 nM | 3.2 | 0.87 nM and 5 nM and 5.1 nM |
| CC[C@H](C)[C@H](NC(=O)[C@H](CO)NC(=O)[C@H](CC(N)=O)NC(=O)[C@H](CC(C)C)NC(=O)[C@H](Cc1ccc(O)cc1)NC(=O)[C@H](CCCCN)NC(=O)[C@H](CCCCN)NC(=O)[C@@H](NC(=O)[C@H](C)NC(=O)[C@H](CCSC)NC(=O)[C@H](CCC(N)=O)NC(=O)[C@H](CCCCN)NC(=O)[C@@H](CCCN=C(N)N)NC(=O)[C@H](CC(C)C)NC(=O)[C@H](CCCN=C(N)N)NC(=O)[C@@H](NC(=O)[C@H](Cc1ccc(O)cc1)NC(=O)[C@H](CC(N)=O)NC(=O)[C@H](CC(=O)O)NC(=O)[C@@H](NC(=O)[C@H](Cc1ccccc1)NC(=O)[C@@H](NC(=O)[C@H](C)NC(=O)[C@H](CC(=O)O)NC(=O)[C@H](CO)NC(=O)[C@@H](N)Cc1cnc[nH]1)C(C)C)[C@@H](C)O)[C@@H](C)O)C(C)C)C(=O)N[C@@H](CC(C)C)C(=O)N[C@@H](CC(N)=O)C(N)=O [VIP [D-Arg14]] | 10.5 nM and 22.4 nM and 27.5 nM | 36.4 | 10.7 nM and 31.6 nM and 24.6 nM |
| CC[C@H](C)[C@H](NC(=O)[C@H](CO)NC(=O)[C@H](CC(N)=O)NC(=O)[C@H](CC(C)C)NC(=O)[C@H](Cc1ccc(O)cc1)NC(=O)[C@H](CCCCN)NC(=O)[C@H](CCCCN)NC(=O)[C@@H](NC(=O)[C@H](C)NC(=O)[C@H](CCSC)NC(=O)[C@H](CCC(N)=O)NC(=O)[C@H](CCCCN)NC(=O)[C@H](CCCN=C(N)N)NC(=O)[C@H](CC(C)C)NC(=O)[C@H](CCCN=C(N)N)NC(=O)[C@@H](NC(=O)[C@H](Cc1ccc(O)cc1)NC(=O)[C@H](CC(N)=O)NC(=O)[C@H](CC(=O)O)NC(=O)[C@H](NC(=O)[C@H](Cc1ccccc1)NC(=O)[C@@H](NC(=O)[C@H](C)NC(=O)[C@H](CC(=O)O)NC(=O)[C@H](CO)NC(=O)[C@@H](N)Cc1cnc[nH]1)C(C)C)[C@H](C)O)[C@@H](C)O)C(C)C)C(=O)N[C@@H](CC(C)C)C(=O)N[C@@H](CC(N)=O)C(N)=O [VIP [D-Thr7]] | 87.1 nM and 324 nM and 437 nM | 200 | 162 nM and 288 nM and 214 nM |
| CC[C@H](C)[C@H](NC(=O)[C@H](CO)NC(=O)[C@H](CC(N)=O)NC(=O)[C@H](CC(C)C)NC(=O)[C@H](Cc1ccc(O)cc1)NC(=O)[C@H](CCCCN)NC(=O)[C@H](CCCCN)NC(=O)[C@@H](NC(=O)[C@H](C)NC(=O)[C@H](CCSC)NC(=O)[C@@H](CCC(N)=O)NC(=O)[C@H](CCCCN)NC(=O)[C@H](CCCN=C(N)N)NC(=O)[C@H](CC(C)C)NC(=O)[C@H](CCCN=C(N)N)NC(=O)[C@@H](NC(=O)[C@H](Cc1ccc(O)cc1)NC(=O)[C@H](CC(N)=O)NC(=O)[C@H](CC(=O)O)NC(=O)[C@@H](NC(=O)[C@H](Cc1ccccc1)NC(=O)[C@@H](NC(=O)[C@H](C)NC(=O)[C@H](CC(=O)O)NC(=O)[C@H](CO)NC(=O)[C@@H](N)Cc1cnc[nH]1)C(C)C)[C@@H](C)O)[C@@H](C)O)C(C)C)C(=O)N[C@@H](CC(C)C)C(=O)N[C@@H](CC(N)=O)C(N)=O [VIP [D-Gln16]] | 1 nM and 5.6 nM and 9.3 nM | 11.5 | 1.1 nM and 2.9 nM and 3.5 nM |
